{
  "source": "patent US8143393B2",
  "about": "“Substituted 4-amino-pyrrolotriazine derivatives useful for treating hyper-proliferative disorders and diseases associated with angiogenesis” (Bayer HealthCare LLC, priority 2005, dated 2012)",
  "data": [
    {"target": "T1, FGFR-1 (Homo sapiens, UniProt P11362)", "T1 construct": "GST; made in house", "T1 sequence (P11362 22-822)": "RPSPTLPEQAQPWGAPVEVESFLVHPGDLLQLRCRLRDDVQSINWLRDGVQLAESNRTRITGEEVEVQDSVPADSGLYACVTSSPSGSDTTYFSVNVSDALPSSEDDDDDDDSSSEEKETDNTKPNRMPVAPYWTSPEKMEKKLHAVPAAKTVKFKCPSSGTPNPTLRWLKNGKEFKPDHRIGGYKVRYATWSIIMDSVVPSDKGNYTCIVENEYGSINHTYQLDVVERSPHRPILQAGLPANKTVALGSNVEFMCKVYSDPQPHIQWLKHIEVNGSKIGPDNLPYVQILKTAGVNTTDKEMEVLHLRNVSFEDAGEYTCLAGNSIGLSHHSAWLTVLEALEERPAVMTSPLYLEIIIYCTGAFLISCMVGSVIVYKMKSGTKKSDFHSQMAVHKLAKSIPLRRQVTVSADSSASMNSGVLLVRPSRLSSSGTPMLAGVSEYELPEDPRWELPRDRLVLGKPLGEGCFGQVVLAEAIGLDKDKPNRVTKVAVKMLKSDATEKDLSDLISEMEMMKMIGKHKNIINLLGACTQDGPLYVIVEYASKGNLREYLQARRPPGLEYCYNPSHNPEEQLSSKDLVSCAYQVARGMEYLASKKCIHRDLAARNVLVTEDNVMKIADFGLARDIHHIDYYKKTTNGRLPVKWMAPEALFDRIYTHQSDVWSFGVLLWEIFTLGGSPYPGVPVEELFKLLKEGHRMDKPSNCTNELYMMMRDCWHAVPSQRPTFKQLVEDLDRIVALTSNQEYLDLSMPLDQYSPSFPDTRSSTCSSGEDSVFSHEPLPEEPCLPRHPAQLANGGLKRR", "experiment": "FGFR-1 TR-FRET biochemical assay", "details": "0.6 uM ATP, 5 nM FGFR1-GST; bounds given in nM", "procedure": "(§1) FGFR-1TR-FRET Biochemical Assay\n(§2) The FGFR-1 Assay was performed on half well 96-well opaque plates (Costar 3915) in a LANCE format. LANCE is a homogenous time resolved fluormetry based application available through Perkin Elmer. For this assay, 50 uL reactions were set up using: 0.6 uM ATP (Sigma), 25 nM poly GT-biotin (CIS BIO International), 2 nM Eu-labelled phospho-Tyr Ab (PY20 PerkinElmer), 10 nM Streptavidin-APC (Perkin Elmer), 5 nM FGFR1-GST (generated by DRT, Bayer Healthcare), 1% DMSO, 50 mM HEPES pH 7.5, 10 mM MgCl2, 0.1 mM EDTA, 0.015% Brij, 0.1 mg/ml BSA, 0.1% B-mercaptoethanol. All reactions were initiated with the addition of enzyme and were left to incubate for one hour at room temperature. Time-resolved fluorescence was then read on a Perkin Elmer VictorV Multilabel counter. The reading protocol uses an excitation wavelength at 340 nm and emission reads at both 615 and 665 nm. Signal was calculated as a ratio: (Flourescence at 665 nm/Flourescence at 615 nM)*10000 for each well. The background control used for this assay is the signal produced with all assay components excluding ATP. For IC50 generation, compounds were added prior to the enzyme initiation. A 50-fold stock plate was made with compounds serially diluted 1:5 in a 50% DMSO/50% dH2O solution. A 1 μL addition of the stock to the assay wells gave final compound concentrations ranging from 10 μM-0.128 nM in 1% DMSO. The data were expressed as percent inhibition: % inhibition=100−((Signal with inhibitor−background)/(Signal without inhibitor−background))*100.", "units": {"IC50": "nM"}, "values": [
      {"smiles": "Nc1ncnn2c(CN3CCS(=O)(=O)CC3)cc(-c3ccc(NC(=O)Nc4cc(C(F)(F)F)ccc4F)c(F)c3)c12", "note": "[Example 79, N-(4-{4-amino-7-[(1,1-dioxidothiomorpholin-4-yl)methyl]pyrrolo[2,1-f][1,2,4]triazin-5-yl}-2-fluorophenyl)-N′-[2-fluoro-5-(trifluoromethyl)phenyl]urea]", "IC50": "< 10"},
      {"smiles": "Nc1ncnn2c(CCCN3CCOCC3)cc(-c3ccc(NC(=O)Nc4cc(C(F)(F)F)ccc4Cl)c(F)c3)c12", "note": "[Example 217, N-{4-[4-amino-7-(3-morpholin-4-ylpropyl)pyrrolo[2,1-f][1,2,4]triazin-5-yl]-2-fluorophenyl}-N′-[2-chloro-5-(trifluoromethyl)phenyl]urea]", "IC50": "10 to 100"},
      {"smiles": "CC(=O)N1CCC(c2cc(-c3ccc(NC(=O)Nc4cc(C(F)(F)F)ccn4)c(F)c3)c3c(N)ncnn23)C1", "note": "(stereo not drawn) [Example 205, N-{4-[7-(1-acetylpyrrolidin-3-yl)-4-aminopyrrolo[2,1-f][1,2,4]triazin-5-yl]-2-fluorophenyl}-N′-[4-(trifluoromethyl)pyridin-2-yl]urea]", "IC50": "< 10"},
      {"smiles": "Nc1ncnn2c(C(=O)NCC3CNCCO3)cc(-c3ccc(NC(=O)Nc4cccc(C(F)(F)F)c4)c(F)c3)c12", "note": "(stereo not drawn) [Example 293, 4-amino-5-{3-fluoro-4-[({[3-(trifluoromethyl)phenyl]-amino}carbonyl)amino]phenyl}-N-(morpholin-2-ylmethyl)pyrrolo[2,1-f][1,2,4]-triazine-7-carboxamide]", "IC50": "10 to 100"},
      {"smiles": "Nc1ncnn2c(CN3CCOCC3)cc(-c3cc(F)c(NC(=O)Nc4cccc(C(F)(F)F)c4F)cc3F)c12", "note": "[Example 42, N-{4-[4-amino-7-(morpholin-4-ylmethyl)pyrrolo[2,1-f][1,2,4]triazin-5-yl]-2,5-difluorophenyl}-N′-[2-fluoro-3-(trifluoromethyl)phenyl]urea]", "IC50": "10 to 100"},
      {"smiles": "Nc1ncnn2c(CN3CCNC(=O)C3)cc(-c3ccc(NC(=O)Nc4cc(C(F)(F)F)ccn4)cc3)c12", "note": "[Example 41, N-(4-{4-amino-7-[(3-oxopiperazin-1-yl)methyl]pyrrolo[2,1-f][1,2,4]triazin-5-yl}phenyl)-N′-[4-(trifluoromethyl)pyridin-2-yl]urea]", "IC50": "< 10"},
      {"smiles": "Nc1ncnn2c(CCO)cc(-c3ccc(NC(=O)Nc4cc(C(F)(F)F)ccc4F)c(F)c3)c12", "note": "[Example 220, N-{4-[4-amino-7-(2-hydroxyethyl)pyrrolo[2,1-f][1,2,4]triazin-5-yl]-2-fluorophenyl}-N′-[2-fluoro-5-(trifluoromethyl)phenyl]urea]", "IC50": "< 10"},
      {"smiles": "COc1cc(-c2cc(CN3CCOCC3)n3ncnc(N)c23)ccc1NC(=O)Nc1cc(C(F)(F)F)ccn1", "note": "[Example 31, N-{4-[4-amino-7-(morpholin-4-ylmethyl)pyrrolo[2,1-f][1,2,4]triazin-5-yl]-2-methoxyphenyl}-N′-[4-(trifluoromethyl)pyridin-2-yl]urea]", "IC50": "10 to 100"},
      {"smiles": "Nc1ncnn2c(CCCN3CCCC3)cc(-c3ccc(NC(=O)Nc4cc(C(F)(F)F)ccc4F)c(F)c3)c12", "note": "[Example 186, N-{4-[4-amino-7-(3-pyrrolidin-1-ylpropyl)pyrrolo[2,1-f][1,2,4]triazin-5-yl]-2-fluorophenyl}-N′-[2-fluoro-5-(trifluoromethyl)phenyl]urea]", "IC50": "< 10"},
      {"smiles": "CC(C)(C)NC(=O)N1CCC(c2cc(-c3ccc(NC(=O)Nc4cc(C(F)(F)F)ccn4)c(F)c3)c3c(N)ncnn23)CC1", "note": "[Example 124, 4-4-amino-5-[3-fluoro-4-([4-(trifluoromethyl)pyridin-2-yl]carbamoylamino)phenyl]pyrrolo[2,1-f][1,2,4]triazin-7-yl-N-tert-butylpiperidine-1-carboxamide]", "IC50": "10 to 100"},
      {"smiles": "Nc1ncnn2c(CN3CCNC(=O)C3)cc(-c3ccc(NC(=O)Nc4cc(C(F)(F)F)ccc4F)c(F)c3)c12", "note": "[Example 40, N-(4-{4-amino-7-[(3-oxopiperazin-1-yl)methyl]pyrrolo[2,1-f][1,2,4]triazin-5-yl}-2-fluorophenyl)-N′-[2-fluoro-5-(trifluoromethyl)phenyl]urea]", "IC50": "< 10"},
      {"smiles": "Nc1ncnn2c(CC3CNCCO3)cc(-c3ccc(NC(=O)Nc4cccc(C(F)(F)F)c4)c(F)c3)c12", "note": "(stereo not drawn) [Example 301, N-{4-[4-amino-7-(morpholin-2-ylmethyl)pyrrolo[2,1-f][1,2,4]triazin-5-yl]-2-fluorophenyl}-N′-[3-(trifluoromethyl)phenyl]urea]", "IC50": "10 to 100"},
      {"smiles": "CC(C)(C)OC(=O)N1CCC(c2cc(-c3ccc(NC(=O)Nc4cc(C(F)(F)F)ccc4F)c(F)c3)c3c(N)ncnn23)C1", "note": "(stereo not drawn) [Example 198, tert-butyl 3-{4-amino-5-[3-fluoro-4-({[2-fluoro-5-(trifluoromethyl)phenyl]carbamoyl}amino)phenyl]pyrrolo[2,1-f][1,2,4]triazin-7-yl}pyrrolidine-1-carboxylate]", "IC50": "> 100"},
      {"smiles": "Nc1ncnn2c(CN3CCOCC3)cc(-c3ccc(NC(=O)Nc4cc(C(F)(F)F)ccn4)cc3F)c12", "note": "[Example 11, N-{4-[4-amino-7-(morpholin-4-ylmethyl)pyrrolo[2,1-f][1,2,4]triazin-5-yl]-3-fluorophenyl}-N′-[4-(trifluoromethyl)pyridin-2-yl]urea]", "IC50": "< 10"},
      {"smiles": "COc1cc(-c2cc(CN3CCOCC3)n3ncnc(N)c23)ccc1NC(=O)Nc1cc(C(C)(C)C)no1", "note": "[Example 30, N-{4-[4-amino-7-(morpholin-4-ylmethyl)pyrrolo[2,1-f][1,2,4]triazin-5-yl]-2-methoxyphenyl}-N′-(3-tert-butylisoxazol-5-yl)urea]", "IC50": "10 to 100"},
      {"smiles": "Nc1ncnn2c(C3CCN(C(=O)C(F)(F)F)CC3)cc(-c3ccc(NC(=O)Nc4cc(C(F)(F)F)ccc4F)c(F)c3)c12", "note": "[Example 112, N-(4-4-amino-7-[1-(trifluoroacetyl)piperidin-4-yl]pyrrolo[2,1-f][1,2,4]triazin-5-yl-2-fluorophenyl)-N′-[2-fluoro-5-(trifluoromethyl)-phenyl]urea]", "IC50": "> 100"},
      {"smiles": "Nc1ncnn2c(C(=O)COCCN3CCOCC3)cc(-c3ccc(NC(=O)Nc4cc(C(F)(F)F)ccc4F)c(F)c3)c12", "note": "[Example 260, N-(4-{4-amino-7-[(2-morpholin-4-ylethoxy)acetyl]pyrrolo[2,1-f][1,2,4]triazin-5-yl}-2-fluorophenyl)-N′-[2-fluoro-5-(trifluoromethyl)phenyl]urea]", "IC50": "> 100"},
      {"smiles": "Nc1ncnn2c(CN3CCOCC3)cc(-c3ccc(NC(=O)Nc4cccc(C(F)(F)F)c4)nc3)c12", "note": "[Example 20, N-{5-[4-amino-7-(morpholin-4-ylmethyl)pyrrolo[2,1-f][1,2,4]triazin-5-yl]pyridin-2-yl}-N′-[3-(trifluoromethyl)phenyl]urea]", "IC50": "< 10"},
      {"smiles": "CC(C)(C)OC(=O)N1CCN(Cc2cc(-c3ccc(NC(=O)Nc4cc(C(F)(F)F)ccc4F)c(F)c3)c3c(N)ncnn23)CC1", "note": "[Example 82, tert-butyl 4-[(4-amino-5-{3-fluoro-4-[({[2-fluoro-5-(trifluoromethyl)phenyl]amino}carbonyl)amino]phenyl}pyrrolo[2,1-f][1,2,4]triazin-7-yl)methyl]piperazine-1-carboxylate]", "IC50": "10 to 100"},
      {"smiles": "COc1cc(-c2cc(CN3CCOCC3)n3ncnc(N)c23)ccc1NC(=O)Nc1cccc(OC(F)(F)F)c1", "note": "[Example 33, N-{4-[4-amino-7-(morpholin-4-ylmethyl)pyrrolo[2,1-f][1,2,4]triazin-5-yl]-2-methoxyphenyl}-N′-[3-(trifluoromethoxy)phenyl]urea]", "IC50": "10 to 100"},
      {"smiles": "COCCN1CCC(c2cc(-c3ccc(NC(=O)Nc4cc(C(F)(F)F)ccc4F)c(Cl)c3)c3c(N)ncnn23)CC1", "note": "[Example 241, N-(4-{4-amino-7-[1-(2-methoxyethyl)piperidin-4-yl]pyrrolo[2,1-f][1,2,4]triazin-5-yl}-2-chlorophenyl)-N′-[2-fluoro-5-(trifluoromethyl)phenyl]urea]", "IC50": "< 10"},
      {"smiles": "Nc1ncnn2c(CN3CCOCC3)cc(-c3ccc(NC(=O)Nc4cccc(C(F)(F)F)c4)c(C(F)(F)F)c3)c12", "note": "[Example 269, N-[4-[4-amino-7-(morpholin-4-ylmethyl)pyrrolo[2,1-f][1,2,4]triazin-5-yl]-2-(trifluoromethyl)phenyl]-N′-[3-(trifluoromethyl)phenyl]urea]", "IC50": "< 10"},
      {"smiles": "COc1cc(-c2cc(CN3CCOCC3)n3ncnc(N)c23)ccc1NC(=O)Nc1cc(C(F)(F)F)ccc1Cl", "note": "[Example 35, N-{4-[4-amino-7-(morpholin-4-ylmethyl)pyrrolo[2,1-f][1,2,4]triazin-5-yl]-2-methoxyphenyl}-N′-[2-chloro-5-(trifluoromethyl)phenyl]urea]", "IC50": "10 to 100"},
      {"smiles": "Nc1ncnn2c(CN3CCOCC3)cc(-c3ccc(NC(=O)Nc4cc(F)cc(C(F)(F)F)c4)nc3)c12", "note": "[Example 22, N-{5-[4-amino-7-(morpholin-4-ylmethyl)pyrrolo[2,1-f][1,2,4]triazin-5-yl]pyridin-2-yl}-N′-[3-fluoro-5-(trifluoromethyl)phenyl]urea]", "IC50": "< 10"}
    ]},
    {"target": "T1, FGFR-1", "experiment": "FGFR-1 TR-FRET biochemical assay", "details": "upper bound of the bin 'greater than 100 nM but less than 1 μM' (lower bound in E1)", "procedure": "as §1, §2", "units": {"IC50": "nM"}, "values": [
      {"smiles": "CC(C)(C)OC(=O)N1CCC(c2cc(-c3ccc(NC(=O)Nc4cc(C(F)(F)F)ccc4F)c(F)c3)c3c(N)ncnn23)C1", "note": "(stereo not drawn) [Example 198, tert-butyl 3-{4-amino-5-[3-fluoro-4-({[2-fluoro-5-(trifluoromethyl)phenyl]carbamoyl}amino)phenyl]pyrrolo[2,1-f][1,2,4]triazin-7-yl}pyrrolidine-1-carboxylate]", "IC50": "< 1000"},
      {"smiles": "Nc1ncnn2c(C3CCN(C(=O)C(F)(F)F)CC3)cc(-c3ccc(NC(=O)Nc4cc(C(F)(F)F)ccc4F)c(F)c3)c12", "note": "[Example 112, N-(4-4-amino-7-[1-(trifluoroacetyl)piperidin-4-yl]pyrrolo[2,1-f][1,2,4]triazin-5-yl-2-fluorophenyl)-N′-[2-fluoro-5-(trifluoromethyl)-phenyl]urea]", "IC50": "< 1000"},
      {"smiles": "Nc1ncnn2c(C(=O)COCCN3CCOCC3)cc(-c3ccc(NC(=O)Nc4cc(C(F)(F)F)ccc4F)c(F)c3)c12", "note": "[Example 260, N-(4-{4-amino-7-[(2-morpholin-4-ylethoxy)acetyl]pyrrolo[2,1-f][1,2,4]triazin-5-yl}-2-fluorophenyl)-N′-[2-fluoro-5-(trifluoromethyl)phenyl]urea]", "IC50": "< 1000"}
    ]}
  ]
}
